In ChEMBL document CHEMBL1128809 (Bioorg Med Chem Lett, 1995):

Key:
[1] = target: Protein kinase C delta type (Homo sapiens, UniProt Q05655); experiment: Inhibition of Protein kinase C delta
[2] = target: T1, Protein kinase C epsilon type (Homo sapiens, UniProt Q02156); experiment: Inhibition of Protein kinase C epsilon
T1 sequence (Q02156 whole entry): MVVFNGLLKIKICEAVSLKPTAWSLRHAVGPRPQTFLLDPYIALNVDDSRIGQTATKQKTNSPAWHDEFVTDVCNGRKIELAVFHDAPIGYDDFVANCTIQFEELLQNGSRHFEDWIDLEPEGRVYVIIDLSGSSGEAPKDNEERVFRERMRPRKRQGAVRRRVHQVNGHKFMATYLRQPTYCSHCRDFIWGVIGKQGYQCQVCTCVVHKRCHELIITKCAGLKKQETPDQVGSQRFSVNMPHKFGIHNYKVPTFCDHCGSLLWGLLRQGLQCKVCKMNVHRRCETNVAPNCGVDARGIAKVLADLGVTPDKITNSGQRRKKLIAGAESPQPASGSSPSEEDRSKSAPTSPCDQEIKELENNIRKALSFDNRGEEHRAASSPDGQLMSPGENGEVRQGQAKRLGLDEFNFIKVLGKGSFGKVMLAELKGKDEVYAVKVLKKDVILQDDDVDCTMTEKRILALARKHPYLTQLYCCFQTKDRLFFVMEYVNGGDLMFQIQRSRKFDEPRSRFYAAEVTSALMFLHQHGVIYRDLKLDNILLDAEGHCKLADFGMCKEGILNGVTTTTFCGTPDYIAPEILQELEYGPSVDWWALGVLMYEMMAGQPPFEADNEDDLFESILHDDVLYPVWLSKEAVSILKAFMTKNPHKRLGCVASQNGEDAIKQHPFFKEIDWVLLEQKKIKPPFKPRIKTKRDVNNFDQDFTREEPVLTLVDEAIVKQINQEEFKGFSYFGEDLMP

[3] = target: T2, Protein kinase C beta type (Homo sapiens, UniProt P05771); experiment: Inhibition of Protein kinase C beta 1
T2 sequence (P05771 whole entry): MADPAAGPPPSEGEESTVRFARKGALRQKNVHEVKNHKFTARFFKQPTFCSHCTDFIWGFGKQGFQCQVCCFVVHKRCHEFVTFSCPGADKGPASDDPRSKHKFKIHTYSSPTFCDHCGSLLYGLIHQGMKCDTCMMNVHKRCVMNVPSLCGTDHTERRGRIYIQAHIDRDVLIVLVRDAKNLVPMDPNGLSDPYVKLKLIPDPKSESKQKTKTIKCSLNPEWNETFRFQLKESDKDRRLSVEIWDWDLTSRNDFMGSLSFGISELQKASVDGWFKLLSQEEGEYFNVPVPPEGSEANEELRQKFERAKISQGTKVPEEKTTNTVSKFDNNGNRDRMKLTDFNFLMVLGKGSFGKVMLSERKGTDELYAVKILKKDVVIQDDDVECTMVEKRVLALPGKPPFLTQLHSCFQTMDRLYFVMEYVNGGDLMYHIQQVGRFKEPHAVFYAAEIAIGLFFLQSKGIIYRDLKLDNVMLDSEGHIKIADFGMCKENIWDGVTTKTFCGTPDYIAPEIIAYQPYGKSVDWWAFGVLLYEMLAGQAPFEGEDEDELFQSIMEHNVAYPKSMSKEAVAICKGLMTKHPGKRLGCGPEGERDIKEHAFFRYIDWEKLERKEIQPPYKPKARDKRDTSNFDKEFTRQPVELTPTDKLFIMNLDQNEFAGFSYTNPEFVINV

[4] = target: Protein kinase C gamma type (Homo sapiens, UniProt P05129); experiment: Inhibition of Protein kinase C gamma
[5] = target: T2, Protein kinase C beta type; experiment: Inhibition of Protein kinase C beta 2
[6] = target: Protein kinase C alpha type (Homo sapiens, UniProt P17252); experiment: Inhibition of Protein kinase C alpha
[7] = target: Protein kinase C eta type (Homo sapiens, UniProt P24723); experiment: Inhibition of Protein kinase C eta
Sequence of Protein kinase C eta type (P24723 whole entry): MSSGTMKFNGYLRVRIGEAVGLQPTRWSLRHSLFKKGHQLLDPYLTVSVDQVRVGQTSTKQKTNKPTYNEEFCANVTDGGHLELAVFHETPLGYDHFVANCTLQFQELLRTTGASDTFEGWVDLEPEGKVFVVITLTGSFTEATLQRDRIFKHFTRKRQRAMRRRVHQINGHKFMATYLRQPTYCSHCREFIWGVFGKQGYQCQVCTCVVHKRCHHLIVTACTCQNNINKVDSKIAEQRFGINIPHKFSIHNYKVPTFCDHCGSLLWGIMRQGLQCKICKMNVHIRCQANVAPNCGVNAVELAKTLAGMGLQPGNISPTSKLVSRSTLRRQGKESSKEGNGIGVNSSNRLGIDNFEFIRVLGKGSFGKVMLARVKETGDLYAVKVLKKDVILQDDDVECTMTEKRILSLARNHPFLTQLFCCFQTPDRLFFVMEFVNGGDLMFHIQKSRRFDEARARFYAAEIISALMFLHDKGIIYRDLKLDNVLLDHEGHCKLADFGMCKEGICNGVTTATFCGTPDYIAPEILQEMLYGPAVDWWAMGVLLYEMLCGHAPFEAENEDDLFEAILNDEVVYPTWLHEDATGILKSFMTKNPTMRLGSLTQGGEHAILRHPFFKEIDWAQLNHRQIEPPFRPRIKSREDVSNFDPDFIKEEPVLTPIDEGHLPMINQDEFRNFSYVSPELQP

[8] = target: T3, Protein kinase C zeta type (Homo sapiens, UniProt Q05513); experiment: Inhibition of Protein kinase C zeta
T3 sequence (Q05513 whole entry): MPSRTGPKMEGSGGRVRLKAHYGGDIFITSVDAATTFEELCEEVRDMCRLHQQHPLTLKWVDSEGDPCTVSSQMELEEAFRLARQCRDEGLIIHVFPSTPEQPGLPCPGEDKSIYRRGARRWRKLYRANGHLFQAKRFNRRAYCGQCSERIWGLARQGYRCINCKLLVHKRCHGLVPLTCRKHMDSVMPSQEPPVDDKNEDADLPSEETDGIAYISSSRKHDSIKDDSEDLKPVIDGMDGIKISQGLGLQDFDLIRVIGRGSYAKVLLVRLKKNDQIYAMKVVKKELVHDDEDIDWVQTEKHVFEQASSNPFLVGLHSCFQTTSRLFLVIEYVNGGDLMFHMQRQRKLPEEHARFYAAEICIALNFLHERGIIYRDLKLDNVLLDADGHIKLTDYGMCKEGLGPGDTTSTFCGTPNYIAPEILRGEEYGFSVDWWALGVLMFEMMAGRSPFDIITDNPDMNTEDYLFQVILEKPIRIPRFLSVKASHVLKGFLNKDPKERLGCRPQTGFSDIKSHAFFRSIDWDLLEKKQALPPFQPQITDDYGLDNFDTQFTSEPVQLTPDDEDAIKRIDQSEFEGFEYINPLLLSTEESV

[9] = Stability in human plasma 4 hr after incubation expressed as percent concentration; type: ADME, cell-free; details: read-out: Concentration
[10] = Stability in human plasma 2 hr after incubation expressed as percent concentration; type: ADME, cell-free; details: read-out: Concentration

Sequence of Protein kinase C delta type (Q05655 whole entry): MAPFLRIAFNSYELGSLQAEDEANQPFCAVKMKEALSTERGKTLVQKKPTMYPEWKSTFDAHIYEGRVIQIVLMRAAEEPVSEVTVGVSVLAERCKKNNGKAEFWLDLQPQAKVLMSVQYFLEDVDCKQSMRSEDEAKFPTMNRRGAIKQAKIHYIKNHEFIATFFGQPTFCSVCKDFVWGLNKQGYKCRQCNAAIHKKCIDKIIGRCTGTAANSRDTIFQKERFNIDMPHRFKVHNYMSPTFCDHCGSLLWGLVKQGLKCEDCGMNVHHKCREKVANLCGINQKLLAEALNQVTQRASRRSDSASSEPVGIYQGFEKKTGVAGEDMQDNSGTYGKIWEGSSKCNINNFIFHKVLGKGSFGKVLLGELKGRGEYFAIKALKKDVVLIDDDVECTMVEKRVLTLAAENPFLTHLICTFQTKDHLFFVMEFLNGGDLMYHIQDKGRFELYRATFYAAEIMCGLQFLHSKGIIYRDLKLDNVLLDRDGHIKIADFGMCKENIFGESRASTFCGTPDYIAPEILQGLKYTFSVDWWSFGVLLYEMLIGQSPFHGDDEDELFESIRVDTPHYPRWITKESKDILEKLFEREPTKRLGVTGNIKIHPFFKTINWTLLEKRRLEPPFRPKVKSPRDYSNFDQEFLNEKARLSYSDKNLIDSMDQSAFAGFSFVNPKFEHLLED

SMILES | IC50 [1] [nM] | IC50 [2] [nM] | IC50 [3] [nM] | IC50 [4] [nM] | IC50 [5] [nM] | IC50 [6] [nM] | IC50 [7] [nM] | IC50 [8] [nM] | remaining at 4 h [9] [%] | remaining at 2 h [10] [%]
CN(C(=O)c1cc(O)c(C(=O)c2c(O)cccc2C(=O)O)c(O)c1)[C@H]1CCCNC[C@H]1NC(=O)c1ccc(O)cc1 | 42000 | > 50000 | > 50000 | > 50000 | > 50000 | > 50000 | 31000 | > 50000 |  | 
O=C(NC[C@@H]1CCC[C@H]1NC(=O)c1ccc(O)cc1)c1cc(O)c(C(=O)c2c(O)cccc2C(=O)O)c(O)c1 | 330 | > 50000 | 17000 | 46000 | 4900 | 35000 | 2300 | > 50000 |  | 
O=C(N[C@@H]1CCC[C@H]1OCc1cc(O)c(C(=O)c2c(O)cccc2C(=O)O)c(O)c1)c1ccc(O)cc1 | 20 | 370 | 430 | 1100 | 290 | 460 | 30 | > 50000 | 100 | 100
C[C@@]1(OC(=O)c2cc(O)c(C(=O)c3c(O)cccc3C(=O)O)c(O)c2)CCCNC[C@H]1NC(=O)c1ccc(O)cc1 | 30 | 50 | 120 | 40 | 70 | 220 | 20 |  |  | 
O=C(N[C@@H]1CCC[C@H]1OC(=O)c1cc(O)c(C(=O)c2c(O)cccc2C(=O)O)c(O)c1)c1ccc(O)cc1 | 1 |  |  |  |  |  | 1 |  |  | 
O=C(N[C@@H]1CNC[C@H]1NC(=O)c1cc(O)c(C(=O)c2c(O)cccc2C(=O)O)c(O)c1)c1ccc(O)cc1 | 12 | 80 | 220 | 330 | 330 | 920 | 3 | 9600 | 104 | 95
O=C(N[C@@H]1CCCNC[C@H]1NC(=O)c1ccc(O)cc1)c1cc(O)c(C(=O)c2c(O)cccc2C(=O)O)c(O)c1 | 220 | 670 | 630 | 420 | 1200 | 3200 | 50 | > 50000 |  | 
O=C(N[C@@H]1CNC[C@H]1OC(=O)c1cc(O)c(C(=O)c2c(O)cccc2C(=O)O)c(O)c1)c1ccc(O)cc1 |  |  | 10 | 12 |  |  |  | 6800 | 103 | 88
O=C(N[C@@H]1CCC[C@H]1COC(=O)c1cc(O)c(C(=O)c2c(O)cccc2C(=O)O)c(O)c1)c1ccc(O)cc1 | 20 | 340 | 40 | 300 | 30 | 40 | 20 | > 50000 |  | 
O=C(N[C@@H]1CNCCC[C@H]1OC(=O)c1cc(O)c(C(=O)c2c(O)cccc2C(=O)O)c(O)c1)c1ccc(O)cc1 (racemic) [BALANOL] | 23 |  | 30 | 30 | 30 | 67 | 20 |  |  | 
O=C(N[C@@H]1CNCCC[C@H]1OC(=O)c1cc(O)c(C(=O)c2c(O)cccc2C(=O)O)c(O)c1)c1ccc(O)cc1 [BALANOL] | 16 |  | 10 | 10 | 10 | 30 | 3 | 5900 |  | 
